Experimental data: patent US9708304B2, “Salt polymorph of thioxanthene-9-ylidene-1-methyl piperidine acid addition salts as antimigraine compounds” (BIOFRONTERA BIOSCIENCE GMBH, priority 2013, dated 2017)
Where two headings read alike, the source gives them in different places.

Assay: Comparison of solubilities of sample Id 1 and Id 2 in three different solvents
Assay type: physicochemical
Procedure: It has also been confirmed that sample 2 has a higher solubility than the starting material. The starting HCl salt (sample Id 1) and the salt received from the low temperature evaporation (sample Id 2) were dissolved in 3 solvents with different capacities in solubility, namely methanol, 2-propanol and 96% ethanol (see Table 3 below). The solubility of sample Id 1 and sample Id 2 is shown in the rightmost column of Table 3 in mg/ml.

[1] = solvent 2-Propanol, hydrochloride
[2] = solvent Ethanol 96%, hydrochloride
[3] = solvent Methanol, hydrochloride

SMILES	Increase in solubility in comparison to the starting material (sample Id 1) (2-propanol)	solubility (2-propanol, organic solvent or mixture, thermodynamic from solid, solvent 2-Propanol, read-out: Solubility)	Increase in solubility in comparison to the starting material (sample Id 1) (96% ethanol)	Solubility compared with starting material (methanol, 2-propanol and 96% ethanol)	Weight-% (dissolved salt in solution) [1]	Weight-% (dissolved salt in solution) [2]	solubility [2]	Weight-% (dissolved salt in solution) [3]	solubility [3]	solubility (96% ethanol, organic solvent or mixture, thermodynamic from solid, solvent Ethanol 96%, read-out: Solubility)	solubility (methanol, organic solvent or mixture, thermodynamic from solid, solvent Methanol, read-out: Solubility)	solubility [1]
CCOc1ccc2c(c1)Sc1cccc(OC)c1C2=C1CCN(C)CC1.Cl [Low. temp. evap. MeOH, 4-(6-ethoxy-1-methoxy-thioxanthene-9-ylidene)-1-methyl piperidine hydrochloride]	about 25%	5 mg/mL	about 9%	enhanced solubility in all three solvents tested	0.38%	4.70%	62 mg/mL	12.92%	171 mg/mL			
CCOc1ccc2c(c1)Sc1cccc(OC)c1C2=C1CCN(C)CC1.Cl [Starting Material, 4-(6-ethoxy-1-methoxy-thioxanthene-9-ylidene)-1-methyl piperidine hydrochloride]					0.27%	4.56%		12.50%		57 mg/mL	156 mg/mL	4 mg/mL
